How the values were obtained:
Format in all cases: cell-based
[1] = system: HCC-2998; test: SRB growth assay, HCC-2998; settings: Homo sapiens, HCC-2998 (Colon), 48 hours, read-out: Percent viability
From the text: (§1) Tested cell lines included, Leukemia: CCRF-CEM, HL-60(TB), MOLT-4, RPMI-8226 and SR; Non-Small Cell Lung: A549/ATCC, EKVX, HOP-62, HOP-92, NCI-H226, NCI-H23, NCI-H322M, NCI-H460 and NCI-H522; Colon: COLO 205, HCC-2998, HCT-116, HCT-15. HT29, KM12 and SW-620; CNS: SF-268, SF-295, SF-539, SNB-19, SNB-75 and U251; Melanoma: LOX IMVI, MALME-3M, M14, MDA-MB-435, SK-MEL-2, SK-MEL-28, SK-MEL-5, UACC-257 and UACC-62; Ovarian: IGR-OV1, OVCAR-3, OVCAR-4, OVCAR-5, OVCAR-8. NCI/ADR-RES and SK-OV-3; Renal: 786-0, A498, ACHN, CAKI-1, RXF 393, SN12C, TK-10 and UO-31; Prostate: DU-145 and PC-3; and Breast: MCF7, MDA-MB-231/ATCC, MDA-MB-468, HS 578T, BT-549 and T-47D.
(§2) The cells were cultured in RPMI1640 media supplemented with 10% Fetal Bovine Serum (FBS), 2 mM glutamine and with 5% CO2 and 37° C. For experiment, 5% of FBS and 50 ug/mL of gentamycin were used. Test articles were 10 μM of NUCL 381-3 or 10 μM NUCL 383-3. The positive control was 10 μM of doxorubicin.
(§3) Cells were plated in 96 well plates. The cells were plated in triplicate. Cells were plated at the densities based on NCI recommendation. Time zero cells (Tz) were fixed the following day with 50% or 80% ice cold Trichloracetic acid (TCA) and washed 5× with water. At 48 hours post addition of treatments, all remaining plates were fixed in 80% ice cold Trichloracetic acid (TCA) and washed 5× with water. After drying, one hundred microliters of 0.4% Sulphorhodamine B (SRB) in 1% acetic acid was added to each plate including the Tzero plate and incubated for 10 minutes at room temperature. After 5 additional washes with 1% acetic acid, plates were allowed to dry. One hundred microliters of Trizma base was added to each well and plates were read at 515 nm.
(§4) Percent of growth was calculated by the following formulas: [Ti/C]×100, where: Tz=absorbance readings for wells at time zero without treatment; C=absorbance readings of untreated cells (without treatment); and Ti=absorbance reading of wells with treatment.

[2] = system: HCT-116; test: SRB growth assay, HCT-116; settings: Homo sapiens, HCT-116 (Colon), 48 hours, read-out: Percent viability
From the text: as §1, §2, §3, §4

[3] = system: HOP-92; test: SRB growth assay, HOP-92; settings: Homo sapiens, HOP-92 (Non-Small Cell Lung), 48 hours, read-out: Percent viability
From the text: as §1, §2, §3, §4

[4] = system: NCI-H226; test: SRB growth assay, NCI-H226; settings: Homo sapiens, NCI-H226 (Non-Small Cell Lung), 48 hours, read-out: Percent viability
From the text: as §1, §2, §3, §4

[5] = system: SNB-75; test: SRB growth assay, SNB-75; settings: Homo sapiens, SNB-75 (CNS), 48 hours, read-out: Percent viability
From the text: as §1, §2, §3, §4

[6] = system: DU-145; test: SRB growth assay, DU-145; settings: Homo sapiens, DU-145 (Prostate), 48 hours, read-out: Percent viability
From the text: as §1, §2, §3, §4

[7] = system: OVCAR-3; test: SRB growth assay, OVCAR-3; settings: Homo sapiens, OVCAR-3 (Ovarian), 48 hours, read-out: Percent viability
From the text: as §1, §2, §3, §4

[8] = system: SF-268; test: SRB growth assay, SF-268; settings: Homo sapiens, SF-268 (CNS), 48 hours, read-out: Percent viability
From the text: as §1, §2, §3, §4

[9] = system: SW-620; test: SRB growth assay, SW-620; settings: Homo sapiens, SW-620 (Colon), 48 hours, read-out: Percent viability
From the text: as §1, §2, §3, §4

[10] = system: NCI-H322M; test: SRB growth assay, NCI-H322M; settings: Homo sapiens, NCI-H322M (Non-Small Cell Lung), 48 hours, read-out: Percent viability
From the text: as §1, §2, §3, §4

[11] = system: A549; test: SRB growth assay, A549; settings: Homo sapiens, A549 (Non-Small Cell Lung), 48 hours, read-out: Percent viability
From the text: as §1, §2, §3, §4

[12] = system: MOLT-4; test: SRB growth assay, MOLT-4; settings: Homo sapiens, MOLT-4 (Leukemia), 48 hours, read-out: Percent viability
From the text: as §1, §2, §3, §4

[13] = system: EKVX; test: SRB growth assay, EKVX; settings: Homo sapiens, EKVX (Non-Small Cell Lung), 48 hours, read-out: Percent viability
From the text: as §1, §2, §3, §4

[14] = system: OVCAR-8; test: SRB growth assay, OVCAR-8; settings: Homo sapiens, OVCAR-8 (Ovarian), 48 hours, read-out: Percent viability
From the text: as §1, §2, §3, §4

[15] = system: MDA-MB-435; test: SRB growth assay, MDA-MB-435; settings: Homo sapiens, MDA-MB-435 (Melanoma), 48 hours, read-out: Percent viability
From the text: as §1, §2, §3, §4

[16] = system: UACC-257; test: SRB growth assay, UACC-257; settings: Homo sapiens, UACC-257 (Melanoma), 48 hours, read-out: Percent viability
From the text: as §1, §2, §3, §4

[17] = system: CCRF-CEM; test: SRB growth assay, CCRF-CEM; settings: Homo sapiens, CCRF-CEM (Leukemia), 48 hours, read-out: Percent viability
From the text: as §1, §2, §3, §4

[18] = system: SF-539; test: SRB growth assay, SF-539; settings: Homo sapiens, SF-539 (CNS), 48 hours, read-out: Percent viability
From the text: as §1, §2, §3, §4

[19] = system: COLO 205; test: SRB growth assay, COLO 205; settings: Homo sapiens, COLO 205 (Colon), 48 hours, read-out: Percent viability
From the text: as §1, §2, §3, §4

[20] = system: IGR-OV1; test: SRB growth assay, IGR-OV1; settings: Homo sapiens, IGROV-1, IGR-OV1 (Ovarian), 48 hours, read-out: Percent viability
From the text: as §1, §2, §3, §4

[21] = system: CAKI-1; test: SRB growth assay, CAKI-1; settings: Homo sapiens, CAKI-1 (Renal), 48 hours, read-out: Percent viability
From the text: as §1, §2, §3, §4

[22] = system: MM1S; test: SRB growth assay, MM1S; settings: Homo sapiens, MM1.S, MM1S (Multiple Myeloma), 48 hours, read-out: Percent viability
[23] = system: NCI-H522; test: SRB growth assay, NCI-H522; settings: Homo sapiens, NCI-H522 (Non-Small Cell Lung), 48 hours, read-out: Percent viability
From the text: as §1, §2, §3, §4

SMILES	viability at 10 µM [1] [%]	viability at 10 µM [2] [%]	viability at 10 µM [3] [%]	viability at 10 µM [4] [%]	viability at 10 µM [5] [%]	viability at 10 µM [6] [%]	viability at 10 µM [7] [%]	viability at 10 µM [8] [%]	viability at 10 µM [9] [%]	viability at 10 µM [10] [%]	viability at 10 µM [11] [%]	viability at 10 µM [12] [%]	viability at 10 µM [13] [%]	viability at 10 µM [14] [%]	viability at 10 µM [15] [%]	viability at 10 µM [16] [%]	viability at 10 µM [17] [%]	viability at 10 µM [18] [%]	viability at 10 µM [19] [%]	viability at 10 µM [20] [%]	also measured
CS(=O)(=O)N1CCC(Cn2cc(C(F)(F)F)c3c(Cl)ncnc32)CC1 [NUCC-0000383]	73.2	15	97.6	29.5	23.3	11.2	95.5	1.77	25.7	53.8	100	17.9	84.6	73.9	46.6	74.7	54	4.93	93	77.5	viability at 10 µM [21]: 46.8%; viability at 10 µM [22]: 58.2%; viability at 10 µM [23]: 21.7%
COc1cccc2c1C(=O)c1c(O)c3c(c(O)c1C2=O)C[C@@](O)(C(=O)CO)C[C@@H]3O[C@H]1C[C@H](N)[C@H](O)[C@H](C)O1 [Doxorubicin, reference compound]	20.9	14.9	98.5	34.2	36	72.5	16.8	6.91	19	42.6	86.8	30.4	35.5	15	17.4	100	43.6	6.83	2.33	8.63	viability at 10 µM [21]: 0%; viability at 10 µM [22]: 26.4%; viability at 10 µM [23]: 18.1%
FC(F)(F)c1cn(CC2CCNCC2)c2ncnc(Cl)c12 [NUCC-0000381]	93.5	20.1	56.8	54.9	83.3	29.8	48.7	3.37	27.2	68.1	28.2	75.5	57.5	31.7	65.5	87.2	52.8	7.4	79.5	36.9	viability at 10 µM [21]: 86.8%; viability at 10 µM [22]: 52.3%; viability at 10 µM [23]: 38.7%

Reference: patent publication US9981968B2, “Substituted pyrrolo[2,3-d]pyrimidines for the treatment of cancer and proliferative disorders” (Northwestern University, priority 2013, dated 2018)
